Source: US20230416329A1, “A PEPTIDE WITH DISULFIDE BONDS AND INHIBITORY ACTIVITY AGAINST SERINE PROTEASES, DERIVED HYBRID PEPTIDES THEREOF, AND USES THEREOF” (INSTITUTE OF MATERIA MEDICA , CHINESE ACADEMY OF MEDICAL …, priority 2020, published 2023)
Where two headings read alike, the source gives them in different places. Bridge positions count the residues as written; N and C are the ends. Square brackets hold non-standard residues; d marks the D form. Peptide text beside a SMILES is read from it. Abu = CC[C@H](N)C(=O)O

Target: porcine pancreatic elastase (Sus scrofa, UniProt P00772)
Test: Elastase inhibitory activity of peptides (AAApNA hydrolysis; IC50, Ki, residual activity)
Format: biochemical
Settings: for Residual activity of elastase / IC50: elastase 0.5 μM, AAApNA 1 mM
Protocol: The inhibition constants of various synthetic active peptide inhibitors (molecular scaffolds) against seine proteases were measured. The substrates N-succinyl-Ala-Ala-Pro-Phe-p-nitroaniline (AAPFpNA), Nα—Benzoyl-L-arginine-4-nitroaniline hydrochloride (BApNA) and N-succinyl-[…] (AAApNA) are used in competitive binding reaction to determine the inhibitory activities against α-chymotrypsin, bovine trypsin, and porcine pancreatic elastase, respectively. Experiments for α-chymotrypsin and bovine trypsin inhibition were measured in 20 mM CaCl2, 50 mM Tris-HCl buffer (pH 7.8), and that for porcine elastase inhibition was measured in 50 mM Tris-HCl buffer (pH 8.0). The concentration of the peptide was measured using optical density (OD) at 280 nm. The Michaelis constant (Km) of the enzyme hydrolysis substrate is calculated from the initial rate of substrate hydrolysis at 405 nm. The absorbance value of the substrate was measured at 405 nm after complete hydrolysis. All data were processed using nonlinear regression.
• (1) Added a total 198 μL of reaction buffer (20 mM CaCl2, 50 mM Tris-HCl (pH 8.0)) into the 96 well plate, followed by preheating at 37° C. for 15 min. Then added 2 μL of different concentrations of substrates (pNA, dissolved in DMSO), and mixed by centrifugation at 500 rpm for 1 min. Finally, the plate was incubated at 37° C. for 30 min, and the absorbance value at 405 nm was measured. In the 200 μL of reaction system, the final concentrations of pNA were 0, 0.025, 0.05, 0.075, 0.1, 0.125, 0.15, 0.175, and 0.2 mM, respectively. Make three repetitions for each concentration and plot the OD405 m value with pNA concentration to obtain the standard curve. • (2) Added a total 190 μL of reaction buffer (20 mM CaCl2, 50 mM Tris-HCl (pH 8.0)) and 8 μL of 4.375 μM elastase into the 96 well plate, followed by preheating at 37° C. for 5 min. Then added 2 μL of different concentrations of substrates (AAApNA, dissolved in DMSO), and mixed by centrifugation at 500 rpm for 1 min. Finally, the plate was incubated at 37° C. for 30 min, and the absorbance value at 405 nm was measured. In the 200 μL of reaction system, the final concentrations of AAApNA were 0, 0.125, 0.166, 0.2, 0.25, 0.33, 0.6, 0.75, and 1.25 mM, respectively. Make three repetitions for each concentration and plot the OD405 nm value with time to obtain the corresponding curve. Divide the slope of the curve by the slope of the standard curve and the enzyme concentration to obtain the initial velocity V0 (mM/(min*mM protein). Plot the initial velocity V0 with the concentration of substrate AAApNA using Prism software, and the Michaelis constant Km value of elastase hydrolyzing AAApNA was obtained.
• (1) Added a total 190 μL of different concentrations of peptides (ECs) against elastase and reaction buffer (20 mM CaCl2, 50 mM Tris-HCl buffer (pH 8.0)) into the pre-cold 96 well plate, followed by preheating at 37° C. for 5 min and centrifugated at 500 rpm for 1 min and allowed to stand for 4 minutes. Then added 8 μL of 12.5 μM elastase and incubated at 37° C. for 10 min and centrifugated at 500 rpm for 1 min and allowed to stand for 9 minutes. Finally, added 2 μL of 100 mM AAApNA, and mixed by centrifugation at 500 rpm for 1 min. The plate was incubated at 37° C. for 60 min, and the absorbance value at 405 nm was measured. Three repetitions were made, and only reaction buffer and substrate were added in the blank control as the minimum absorption value (Min OD405 nm); Only reaction buffer, enzyme and substrate were added in the negative control as the maximum absorption value (Max OD405 nm). • (2) In the 200 μL of reaction system, the final concentrations of elastase and AAApNA were 0.5 μM and 1 mM, respectively. • (3) Data statistics
Residual activity of enzyme (%)=(1−(Max OD405 nm−Sample OD405 nm)/(Max OD405 nm−Min OD405 nm))*100 […]

Sequence of porcine pancreatic elastase (P00772 27-266): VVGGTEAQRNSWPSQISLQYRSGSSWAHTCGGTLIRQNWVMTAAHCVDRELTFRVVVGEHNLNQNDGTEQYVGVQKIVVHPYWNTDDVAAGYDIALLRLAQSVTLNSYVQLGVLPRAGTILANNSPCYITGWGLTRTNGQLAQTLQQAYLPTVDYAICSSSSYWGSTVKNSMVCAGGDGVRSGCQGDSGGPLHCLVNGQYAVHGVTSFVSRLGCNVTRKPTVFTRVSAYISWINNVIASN

| Residual activity of elastase (peptide 0.001 μM) | Residual activity of elastase (peptide 0.01 μM) | Residual activity of elastase (peptide 0.1 μM) | Residual activity of elastase (peptide 1 μM) | Residual activity of elastase (peptide 10 μM) | Residual activity of elastase (peptide 100 μM) | Residual activity of elastase (peptide 1000 μM) | IC50 | SMILES | also measured |
| --- | --- | --- | --- | --- | --- | --- | --- | --- | --- |
| 99.9 ± 0.5% | 99.4 ± 0.1% | 96.1 ± 0.9% | 52.1 ± 1.8% | 5.4 ± 0.3% | 0.2 ± 0.1% | 0.0 ± 0.0% |  | CC[C@H](C)[C@H](N)C(=O)N[C@H]1CSSC[C@@H](C(=O)N[C@@H](CCC(N)=O)C(=O)O)NC(=O)[C@H](CCC(N)=O)NC(=O)[C@@H]2CCCN2C(=O)[C@@H]2CCCN2C(=O)[C@H]([C@@H](C)CC)NC(=O)[C@H](CO)NC(=O)[C@H](C)NC(=O)[C@H]([C@@H](C)O)NC1=O [EC19] (H-ICTASIPPQCQ-OH; disulfide 2-10; N-terminus and C-terminus assumed) | Residual activity of elastase (peptide 0.5 μM): 81.2 ± 4.1%; Residual activity of elastase (peptide 2 μM): 29.8 ± 0.8%; Residual activity of elastase (peptide 4 μM): 15.5 ± 0.3%; Ki (read-out: Ki): 330 nM |
|  |  |  |  |  |  |  | > 50000 nM | CC[C@H](C)[C@@H]1NC(=O)[C@H](CO)NC(=O)[C@H](C)NC(=O)[C@H]([C@@H](C)O)NC(=O)[C@@H](NC(=O)[C@@H](N)CC(C)C)CSSC[C@@H](C(=O)N[C@@H](CCCNC(=N)N)C(=O)O)NC(=O)[C@H](CCC(N)=O)NC(=O)[C@@H]2CCCN2C(=O)[C@@H]2CCCN2C1=O [EC20] (H-LCTASIPPQCR-OH; disulfide 2-10; N-terminus and C-terminus assumed) |  |
|  |  |  |  |  |  |  | > 50000 nM | CC(C)C[C@H](N)C(=O)N[C@H]1CSSC[C@@H](C(=O)N[C@@H](CCCNC(=N)N)C(=O)O)NC(=O)[C@H]([C@@H](C)O)NC(=O)[C@@H]2CCCN2C(=O)[C@@H]2CCCN2C(=O)[C@H](CC(N)=O)NC(=O)[C@H](CO)NC(=O)[C@H](C)NC(=O)[C@H]([C@@H](C)O)NC1=O [EC28] (H-LCTASNPPTCR-OH; disulfide 2-10) |  |
| 105.9 ± 2.2% | 102.0 ± 2.9% | 92.6 ± 2.7% | 47.5 ± 0.7% | 5.9 ± 0.4% | 0.1 ± 0.1% | 0.1 ± 0.0% |  | CC[C@H](C)[C@@H]1NC(=O)[C@@H]2CCCN2C(=O)[C@@H]2CCCN2C(=O)[C@H]([C@@H](C)CC)NC(=O)[C@H](CO)NC(=O)[C@H](C)NC(=O)[C@H]([C@@H](C)O)NC(=O)[C@@H](NC(=O)[C@@H](N)Cc2ccc(O)cc2)CSSC[C@@H](C(=O)N[C@@H](CCC(N)=O)C(=O)O)NC1=O [EC29] (H-YCTASIPPICQ-OH; disulfide 2-10; C-terminus assumed) | Residual activity of elastase (peptide 0.5 μM): 72.7 ± 4.4%; Residual activity of elastase (peptide 2 μM): 28.5 ± 0.4%; Residual activity of elastase (peptide 6 μM): 8.9 ± 0.4% |
|  |  |  |  |  |  |  | > 50000 nM | CC[C@H](C)[C@@H]1NC(=O)CNC(=O)[C@@H](N)CSSC[C@@H](C(=O)N[C@@H](CCC(N)=O)C(=O)O)NC(=O)[C@H]([C@@H](C)CC)NC(=O)[C@@H]2CCCN2C(=O)[C@@H]2CCCN2C(=O)[C@H]([C@@H](C)CC)NC(=O)[C@H](CO)NC(=O)[C@H](C)NC(=O)[C@H]([C@@H](C)O)NC(=O)[C@H](C)NC1=O [EC30] (H-CGIATASIPPICQ-OH; disulfide 1-12) |  |
|  |  |  |  |  |  |  | > 50000 nM | CC[C@H](C)[C@@H]1NC(=O)CNC(=O)[C@@H](N)CSSC[C@@H](C(=O)N[C@@H](CCC(N)=O)C(=O)O)NC(=O)[C@H]([C@@H](C)CC)NC(=O)[C@@H]2CCCN2C(=O)[C@@H]2CCCN2C(=O)[C@H]([C@@H](C)CC)NC(=O)[C@H](CO)NC(=O)[C@H](C)NC(=O)[C@H]([C@@H](C)O)NC(=O)[C@H](Cc2ccccc2)NC1=O [EC36] (H-CGIFTASIPPICQ-OH; disulfide 1-12) |  |

Further lines, the molecule ahead of its results:

| SMILES | Residual activity of elastase (peptide 0.001 μM) | Residual activity of elastase (peptide 0.01 μM) | Residual activity of elastase (peptide 0.1 μM) | Residual activity of elastase (peptide 1 μM) | Residual activity of elastase (peptide 10 μM) | Residual activity of elastase (peptide 100 μM) | Residual activity of elastase (peptide 1000 μM) | IC50 | also measured |
| --- | --- | --- | --- | --- | --- | --- | --- | --- | --- |
| CC[C@H](C)[C@@H]1NC(=O)[C@@H]2CCCN2C(=O)[C@@H]2CCCN2C(=O)[C@H]([C@@H](C)CC)NC(=O)[C@H](CO)NC(=O)[C@H](C)NC(=O)[C@H]([C@@H](C)O)NC(=O)[C@@H](NC(=O)[C@@H](N)C(C)C)CSSC[C@@H](C(=O)N[C@@H](CCC(N)=O)C(=O)O)NC1=O [EC22] (H-VCTASIPPICQ-OH; disulfide 2-10; C-terminus assumed) | 100.1 ± 1.0% | 99.8 ± 0.3% | 92.0 ± 6.8% | 20.4 ± 1.2% | 2.4 ± 0.2% | 0.0 ± 0.0% | −0.2 ± 0.2% | 400 nM | Residual activity of elastase (peptide 0.2 μM): 70.8 ± 4.3%; Residual activity of elastase (peptide 0.4 μM): 51.6 ± 1.7%; Ki (read-out: Ki): 110 nM |
| CC[C@H](C)[C@H](N)C(=O)N[C@H]1CSSC[C@@H](C(=O)N[C@@H](CCC(N)=O)C(=O)O)NC(=O)[C@H]([C@@H](C)CC)NC(=O)[C@@H]2CCCN2C(=O)[C@@H]2CCCN2C(=O)[C@H]([C@@H](C)CC)NC(=O)[C@H](CO)NC(=O)[C@H](C)NC(=O)[C@H]([C@@H](C)O)NC1=O [EC23] (H-ICTASIPPICQ-OH; disulfide 2-10; C-terminus assumed) | 103.0 ± 2.2% | 97.8 ± 4.8% | 76.8 ± 3.1% | 15.1 ± 0.9% | 1.5 ± 0.3% | −0.2 ± 0.1% | −0.2 ± 0.1% |  | Residual activity of elastase (peptide 0.2 μM): 56.4 ± 2.9%; Residual activity of elastase (peptide 0.4 μM): 40.8 ± 2.0%; Residual activity of elastase (peptide 0.6 μM): 23.7 ± 0.2%; Ki (read-out: Ki against elastase): 70 nM |
| CC[C@@H]1NC(=O)[C@H]([C@@H](C)CC)NC(=O)CNC(=O)[C@@H](N)CSSC[C@@H](C(=O)N[C@@H](CCC(N)=O)C(=O)O)NC(=O)[C@H]([C@@H](C)CC)NC(=O)[C@@H]2CCCN2C(=O)[C@@H]2CCCN2C(=O)[C@H]([C@@H](C)CC)NC(=O)[C@H](CO)NC(=O)[C@H](C)NC(=O)[C@H]([C@@H](C)O)NC1=O [EC31] (H-CGI[Abu]TASIPPICQ-OH; disulfide 1-12) |  |  |  |  |  |  |  | > 50000 nM |  |
| CC[C@H](C)[C@@H]1NC(=O)CNC(=O)[C@@H](N)CSSC[C@@H](C(=O)N[C@@H](CCC(N)=O)C(=O)O)NC(=O)[C@H]([C@@H](C)CC)NC(=O)[C@@H]2CCCN2C(=O)[C@@H]2CCCN2C(=O)[C@H]([C@@H](C)CC)NC(=O)[C@H](CO)NC(=O)[C@H](C)NC(=O)[C@H]([C@@H](C)O)NC(=O)[C@H](CO)NC1=O [EC34] (H-CGISTASIPPICQ-OH; disulfide 1-12) |  |  |  |  |  |  |  | > 50000 nM |  |
| CC[C@H](C)[C@@H]1NC(=O)CNC(=O)[C@@H](N)CSSC[C@@H](C(=O)N[C@@H](CCC(N)=O)C(=O)O)NC(=O)[C@H]([C@@H](C)CC)NC(=O)[C@@H]2CCCN2C(=O)[C@@H]2CCCN2C(=O)[C@H]([C@@H](C)CC)NC(=O)[C@H](CO)NC(=O)[C@H](C)NC(=O)[C@H]([C@@H](C)O)NC(=O)[C@H](CC(N)=O)NC1=O [EC38] (H-CGINTASIPPICQ-OH; disulfide 1-12; C-terminus assumed) |  |  |  |  |  |  |  | 1000 nM |  |
